# From ChEMBL document CHEMBL5543108, “Structure-based design and synthesis of BML284 derivatives: A novel class of colchicine-site noncovalent tubulin degradation agents” (Eur J Med Chem, 2024)
# Tests used:
# HeLa = test: Antiproliferative activity against human HeLa cells assessed as reduction in cell viability measured after 72 hrs; type: functional, cell-based
# A2780S [1] = test: Antiproliferative activity against human A2780S cells assessed as reduction in cell viability measured after 72 hrs; type: functional, cell-based
# A2780/Taxol [2] = test: Antiproliferative activity against human A2780T cells assessed as reduction in cell viability measured after 72 hrs; type: functional, cell-based
# A549 = test: Antiproliferative activity against human A549 cells assessed as reduction in cell viability measured after 72 hrs; type: functional, cell-based; conditions: A549, 72 h
# NCI/ADR-RES = test: Antiproliferative activity against human MCF7ADR cells assessed as reduction in cell viability measured after 72 hrs; type: functional, cell-based
# A2780S [3] = test: Induction of cell cycle arrest in human A2780S cells assessed as accumulation of cells at G0/G1 phase at 3 nM measured after 24 hrs by propidium iodide staining based analysis (reference value: 51.71%); type: functional
# A2780S [4] = test: Induction of cell cycle arrest in human A2780S cells assessed as accumulation of cells at G0/G1 phase at 300 nM measured after 24 hrs by propidium iodide staining based analysis (reference value: 51.71%); type: functional
# A2780S [5] = test: Induction of cell cycle arrest in human A2780S cells assessed as accumulation of cells at G2/M phase at 3 nM measured after 24 hrs by propidium iodide staining based analysis (reference value: 18.43%); type: functional
# A2780S [6] = test: Induction of cell cycle arrest in human A2780S cells assessed as accumulation of cells at G2/M phase at 100 nM measured after 24 hrs by propidium iodide staining based analysis (reference value: 18.43%); type: functional
# A2780S [7] = test: Induction of cell cycle arrest in human A2780S cells assessed as accumulation of cells at G2/M phase at 300 nM measured after 24 hrs by propidium iodide staining based analysis (reference value: 18.43%); type: functional
# A2780S [8] = test: Induction of cell cycle arrest in human A2780S cells assessed as accumulation of cells at S phase at 30 nM measured after 24 hrs by propidium iodide staining based analysis (reference value: 29.85%); type: functional
# A2780/Taxol [9] = test: Induction of cell cycle arrest in human A2780T cells assessed as accumulation of cells at G0/G1 phase at 3 nM measured after 24 hrs by propidium iodide staining based analysis (reference value: 46.141%); type: functional
# A2780/Taxol [10] = test: Induction of cell cycle arrest in human A2780T cells assessed as accumulation of cells at G0/G1 phase at 10 nM measured after 24 hrs by propidium iodide staining based analysis (reference value: 46.141%); type: functional
# A2780/Taxol [11] = test: Induction of cell cycle arrest in human A2780T cells assessed as accumulation of cells at G0/G1 phase at 30 nM measured after 24 hrs by propidium iodide staining based analysis (reference value: 46.141%); type: functional
# A2780/Taxol [12] = test: Induction of cell cycle arrest in human A2780T cells assessed as accumulation of cells at G0/G1 phase at 300 nM measured after 24 hrs by propidium iodide staining based analysis (reference value: 46.141%); type: functional
# A2780/Taxol [13] = test: Induction of cell cycle arrest in human A2780T cells assessed as accumulation of cells at G2/M phase at 10 nM measured after 24 hrs by propidium iodide staining based analysis (reference value: 24.13%); type: functional
# A2780/Taxol [14] = test: Induction of cell cycle arrest in human A2780T cells assessed as accumulation of cells at G2/M phase at 100 nM measured after 24 hrs by propidium iodide staining based analysis (reference value: 24.13%); type: functional
# A2780/Taxol [15] = test: Induction of cell cycle arrest in human A2780T cells assessed as accumulation of cells at G2/M phase at 300 nM measured after 24 hrs by propidium iodide staining based analysis (reference value: 24.13%); type: functional
# A2780S [16] = test: Induction of apoptosis in human A2780S cells assessed as total number of late apoptotic cells at 30 nM measured after 48 hrs by Annexin-V-FITC and PI staining based flow cytometry analysis (reference value: 3.42%); type: functional
# A2780S [17] = test: Induction of apoptosis in human A2780S cells assessed as total number of late apoptotic cells at 100 nM measured after 48 hrs by Annexin-V-FITC and PI staining based flow cytometry analysis (reference value: 3.42%); type: functional
# HUVEC [18] = test: Antivascular activity against human HUVEC cells assessed as inhibition of capillary tube formation at 40 nM incubated for 6 hrs by microscopy based analysis relative to control; type: functional; set-up: scale not given: the % may be the effect or the level left
# HUVEC [19] = test: Antivascular activity against human HUVEC cells assessed as inhibition of capillary tube formation incubated for 24 hrs by microscopy based analysis; type: functional, cell-based
# A2780S [20] = test: Antitumor activity against human A2780S cells xenografted in mouse model assessed as tumor growth inhibition at 10 mg/kg, iv administered every two days for 12 days relative to control; type: functional; conditions: 288 h, time 12 day, read-out: TGI
# A2780S [21] = test: Antitumor activity against human A2780S cells xenografted in mouse model assessed as tumor growth inhibition at 30 mg/kg, iv administered every two days for 12 days relative to control; type: functional; conditions: 288 h, time 12 day, read-out: TGI
# A2780/Taxol [22] = test: Antitumor activity against human A2780T cells xenografted in mouse model assessed as tumor growth inhibition at 10 mg/kg, iv administered every two days for 18 days relative to control; type: functional; conditions: 432 h, time 18 day, read-out: TGI
# A2780/Taxol [23] = test: Antitumor activity against human A2780T cells xenografted in mouse model assessed as tumor growth inhibition at 20 mg/kg, iv administered every two days for 18 days relative to control; type: functional; conditions: 432 h, time 18 day, read-out: TGI
# A2780/Taxol [24] = test: Antitumor activity against human A2780T cells xenografted in mouse model assessed as tumor growth inhibition at 40 mg/kg, iv administered every two days for 18 days relative to control; type: functional; conditions: 432 h, time 18 day, read-out: TGI
# [25] = Toxicity in mouse xenografted with human A2780T cells assessed as effect on body weight at 10 to 30 mg/kg, iv measured upto 18 days; type: organism-based, A2780/Taxol; conditions: in vivo, 432 h, dose 10-30 mg/kg, time < 18 day
# [26] = Half life in male Sprague-Dawley rat at 10 mg/kg, iv; type: ADME, organism-based; conditions: in vivo
# [27] = Tmax in male Sprague-Dawley rat at 10 mg/kg, iv; type: ADME, organism-based; conditions: in vivo
# [28] = Clearance in male Sprague-Dawley rat at 10 mg/kg, iv; type: ADME, organism-based; conditions: in vivo
# [29] = Volume of distribution at steady state in male Sprague-Dawley rat at 10 mg/kg, iv; type: ADME, organism-based; conditions: in vivo, read-out: Vdss
# [30] = Cmax in male Sprague-Dawley rat at 10 mg/kg, iv; type: ADME, organism-based; conditions: in vivo
# [31] = Half life in male Sprague-Dawley rat at 10 mg/kg, po; type: ADME, organism-based; conditions: in vivo
# [32] = Volume of distribution at steady state in male Sprague-Dawley rat at 10 mg/kg, po; type: ADME, organism-based; conditions: in vivo
# [33] = AUC (0 to t) in male Sprague-Dawley rat at 10 mg/kg, po; type: ADME, organism-based; conditions: in vivo
# [34] = molecular target: Tubulin beta (Homo sapiens) (UniProt P68371+Q9H4B7+Q13509+P04350+Q3ZCM7+P07437+Q13885+Q9BVA1+Q9BUF5+A6NNZ2); test: Binding affinity to beta-tubulin colchicine binding site in human HeLa cells assessed as inhibition of EBI-beta-tubulin adduct band formation by EBI competition based Western blot analysis; type: cell-based; conditions: dose 0.2-25 µM
# HCT-116 = test: cells; conditions: Homo sapiens, HCT-116, 72 h
# Description: Antiproliferative activity against human HCT-116 cells assessed as reduction in cell viability measured after 72 hrs
smiles,measurement,setting,value
COc1cccc(-c2cc(NCc3ccc4[nH]ccc4c3)nc(N)n2)c1,IC50,HeLa,50 nM
same,IC50,A2780S [1],18 nM
same,IC50,A2780/Taxol [2],16 nM
same,IC50,A549,34 nM
same,IC50,NCI/ADR-RES,32 nM
same,Activity,A2780S [3],47.48%
same,Activity,A2780S [4],1.54%
same,Activity,A2780S [5],23.17%
same,Activity,A2780S [6],42.46%
same,Activity,A2780S [7],82.11%
same,Activity,A2780S [8],28.02%
same,Activity,A2780/Taxol [9],50.87%
same,Activity,A2780/Taxol [10],46.48%
same,Activity,A2780/Taxol [11],44.27%
same,Activity,A2780/Taxol [12],4.64%
same,Activity,A2780/Taxol [13],20.61%
same,Activity,A2780/Taxol [14],83.16%
same,Activity,A2780/Taxol [15],83.98%
same,Activity,A2780S [16],5.29%
same,Activity,A2780S [17],14.43%
same,Activity,HUVEC [18],100%
same,IC50,HUVEC [19],623 nM
same,inhibition in vivo at 10 mg/kg,A2780S [20],45.3%
same,inhibition in vivo at 30 mg/kg,A2780S [21],79.4%
same,inhibition in vivo at 10 mg/kg,A2780/Taxol [22],52.2%
same,inhibition in vivo at 20 mg/kg,A2780/Taxol [23],68.2%
same,inhibition in vivo at 40 mg/kg,A2780/Taxol [24],82%
same,Activity,[25],Non-Toxic
same,half-life,[26],116 min
same,Tmax,[27],4.8 min
same,clearance,[28],42.5 mL/min/kg
same,Vd,[29],7.43 L/kg
same,Cmax,[30],2890 ng/mL
same,half-life,[31],356 min
same,Vdss,[32],154.68 L/kg
same,AUC(0-t),[33],447 ng·h/mL
same,Activity,[34],Dose-Dependent Effect
same,IC50,HCT-116,30 nM
